Assay [1] in a line: inhibitors of intracellular T. cruzi replication, confirmation, NIH3T3 host cells, beta-gal luminescence (AID 2044).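 Also: intracellular parasites grown in NIH/3T3 mouse fibroblasts as host cells; luminescent beta-galactosidase reporter signal from transgenic T. cruzi replicating inside host cells; inhibitors lower the luminescence signal.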 It counts as functional, cell-based.
The nature of assay [2]: inhibitors of firefly luciferase expression or activity, dose response, H4 neuroglioma cells, luminescence (AID 1990). It counts as functional, cell-based.
Assay [3] in a line: inhibitors of SNCA 5'UTR-driven reporter translation, confirmation, H4 neuroglioma cells, luminescence (AID 1988). In kind it is functional, cell-based.
Assay [4] is described as follows: Luminescence Cell-Based Dose Response HTS to Identify Inhibitors of 5'UTR Stem-Loop Driven Prion Protein mRNA Translation in H4 Neuroglioblastoma Cells. [Related pubchem assays: 1827 (Project Summary), 1813 (Primary HTS)]. It counts as functional.
The nature of assay [5]: cytotoxicity toward NIH3T3 fibroblasts, dose response, counter-screen, cell-based, ATP luminescence, mouse fibroblasts (AID 2010).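 Also: cells exposed to compound for about 90 hours before reading.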 It counts as functional.
The next assay deals with Cytochrome P450 2C9 (Homo sapiens, UniProt P11712).
Assay [6] can be described thus: NIH-3T3 fibroblast cytotoxicity, dose response, cytotoxicity control, cell-based, fluorescence, Alamar Blue, secondary assay (AID 2327).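 Also: NIH-3T3 mouse fibroblasts cultured with fluconazole at 8 µg/mL.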 In kind it is functional.
The nature of assay [7]: C. albicans growth with fluconazole, confirmation, fluorescence, retest (AID 2467). It counts as functional, cell-based.
Assay [8] can be described thus: growth suppression of beta-catenin-knockout colon cells, dose response, cell-based, HCT116, human colon tumor (AID 1045).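 Also: HCT116 colon tumor cells with beta catenin knocked out; cells exposed to compound for 60 hours.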 In kind it is functional.
Assay [9] in a line: growth suppression of PTEN-null colon cells, dose response, cell-based, HCT116 PTEN knockout (AID 1047).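 Also: HCT116 colon tumor cells with PTEN knocked out; cells exposed to compound for 60 hours before readout; potency for loss of cell viability measured by luminescence.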 In kind it is functional.
Assay [10] is described as follows: Luminescence Cell-Based Dose Retest to Confirm Inhibitors of Cancer Stem Cells. [Related pubchem assays (depositor defined):AID2717, AID2721]. It counts as functional. As to conditions: Homo sapiens.
The test system of another assay is H4. Kind of assay: Luminescence Cell-Based Dose Response HTS to Identify Activators of 5'UTR Stem-Loop Driven Prion Protein mRNA Translation in H4 Neuroglioblastoma Cells. [Related pubchem assays: 1829 (Project Summary), 1814 (Primary HTS)]. In kind it is functional. The following applies: Homo sapiens.
Assay [11] in a line: Luminescence Cell-Based Dose Response HTS to Identify Activators of Luciferase Translation or Activity in H4 […] Cells. [Related pubchem assays: 1829 (Project Summary), 1814 (Primary HTS)]. In kind it is functional.
For assay [12], the target named is T1, RNA-binding protein pos-1 (Caenorhabditis elegans, UniProt G5EF15).
T1 sequence (G5EF15 whole entry): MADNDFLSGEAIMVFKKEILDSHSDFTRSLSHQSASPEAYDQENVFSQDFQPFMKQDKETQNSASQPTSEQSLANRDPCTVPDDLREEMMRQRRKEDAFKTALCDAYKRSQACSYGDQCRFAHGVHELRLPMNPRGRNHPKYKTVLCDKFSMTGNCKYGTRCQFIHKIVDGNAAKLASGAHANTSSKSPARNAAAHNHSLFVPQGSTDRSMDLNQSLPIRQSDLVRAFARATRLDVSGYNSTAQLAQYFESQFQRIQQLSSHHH
Kind of assay: inhibitors of POS-1/mex-3 RNA binding, dose response, biochemical, fluorescence polarization (AID 1964).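 Also: purified POS-1 fused to maltose binding protein made in E. coli; potency of compounds blocking POS-1 binding to fluorescent RNA.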

For assay [13], the target named is T2, Zinc finger protein mex-5 (Caenorhabditis elegans, UniProt Q9XUB2).
T2 sequence (Q9XUB2 whole entry): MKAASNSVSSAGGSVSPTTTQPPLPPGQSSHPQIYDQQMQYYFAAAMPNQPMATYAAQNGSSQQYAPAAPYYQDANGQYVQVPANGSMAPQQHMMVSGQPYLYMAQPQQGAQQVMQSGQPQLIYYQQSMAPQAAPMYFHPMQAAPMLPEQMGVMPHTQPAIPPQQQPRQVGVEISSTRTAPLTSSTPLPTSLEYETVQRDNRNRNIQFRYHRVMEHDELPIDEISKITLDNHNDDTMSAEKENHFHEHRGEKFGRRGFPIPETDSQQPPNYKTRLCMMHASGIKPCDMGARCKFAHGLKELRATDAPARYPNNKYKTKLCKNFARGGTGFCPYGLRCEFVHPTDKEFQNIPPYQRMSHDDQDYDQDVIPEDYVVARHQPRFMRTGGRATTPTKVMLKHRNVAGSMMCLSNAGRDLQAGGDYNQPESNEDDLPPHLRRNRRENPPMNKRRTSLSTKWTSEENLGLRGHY
The experiment in a line: MEX-5/TCR-2 RNA interaction inhibitors, dose response, biochemical, C. elegans, fluorescence polarization (AID 1960).

The target of the next assay is Cytochrome P450 2C19 (Homo sapiens, UniProt P33261). The experiment in a line: Cytochrome panel assay with activity outcomes. Panel member name: p450-cyp2c19 Compounds with AC50 equal or less than 10 uM are considered active. It counts as functional. As to conditions: read-out: AC50.
The next assay has as its target Cytochrome P450 3A4 (Homo sapiens, UniProt P08684).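 Also: CYP3A4 tested as one member of a cytochrome P450 panel screen.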

The source of these data is ChEMBL document CHEMBL1201862, “PubChem BioAssay data set” (2004).

Calls of active or inactive are those of the source.

Sequence of Cytochrome P450 2C19 (P33261 whole entry): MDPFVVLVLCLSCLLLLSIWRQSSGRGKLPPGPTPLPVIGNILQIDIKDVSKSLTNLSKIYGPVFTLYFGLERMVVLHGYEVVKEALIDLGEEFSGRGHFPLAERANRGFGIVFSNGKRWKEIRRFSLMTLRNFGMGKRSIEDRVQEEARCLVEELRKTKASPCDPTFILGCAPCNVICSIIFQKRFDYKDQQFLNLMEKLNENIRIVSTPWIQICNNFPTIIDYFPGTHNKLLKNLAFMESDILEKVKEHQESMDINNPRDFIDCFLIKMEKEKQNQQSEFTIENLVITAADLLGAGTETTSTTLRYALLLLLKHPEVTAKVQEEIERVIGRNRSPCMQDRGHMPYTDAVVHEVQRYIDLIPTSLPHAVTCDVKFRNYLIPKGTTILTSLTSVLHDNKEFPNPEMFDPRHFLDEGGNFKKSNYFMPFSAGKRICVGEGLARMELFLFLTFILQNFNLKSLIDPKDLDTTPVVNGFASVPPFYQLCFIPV
Sequence of Cytochrome P450 2C9 (P11712 whole entry): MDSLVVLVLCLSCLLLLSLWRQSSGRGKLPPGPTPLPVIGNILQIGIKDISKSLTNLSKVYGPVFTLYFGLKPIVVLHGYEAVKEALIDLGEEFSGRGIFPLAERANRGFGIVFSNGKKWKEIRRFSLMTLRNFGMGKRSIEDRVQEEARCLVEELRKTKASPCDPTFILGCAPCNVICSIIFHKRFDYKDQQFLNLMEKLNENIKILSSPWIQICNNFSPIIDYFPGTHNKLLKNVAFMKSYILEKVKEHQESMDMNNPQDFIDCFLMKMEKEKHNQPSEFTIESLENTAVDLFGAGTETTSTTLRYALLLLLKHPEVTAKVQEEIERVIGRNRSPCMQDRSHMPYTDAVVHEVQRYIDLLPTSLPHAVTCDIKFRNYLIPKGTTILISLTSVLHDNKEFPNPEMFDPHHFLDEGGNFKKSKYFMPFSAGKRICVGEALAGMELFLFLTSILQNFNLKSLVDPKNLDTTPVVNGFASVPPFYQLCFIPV
Sequence of Cytochrome P450 3A4 (P08684 whole entry): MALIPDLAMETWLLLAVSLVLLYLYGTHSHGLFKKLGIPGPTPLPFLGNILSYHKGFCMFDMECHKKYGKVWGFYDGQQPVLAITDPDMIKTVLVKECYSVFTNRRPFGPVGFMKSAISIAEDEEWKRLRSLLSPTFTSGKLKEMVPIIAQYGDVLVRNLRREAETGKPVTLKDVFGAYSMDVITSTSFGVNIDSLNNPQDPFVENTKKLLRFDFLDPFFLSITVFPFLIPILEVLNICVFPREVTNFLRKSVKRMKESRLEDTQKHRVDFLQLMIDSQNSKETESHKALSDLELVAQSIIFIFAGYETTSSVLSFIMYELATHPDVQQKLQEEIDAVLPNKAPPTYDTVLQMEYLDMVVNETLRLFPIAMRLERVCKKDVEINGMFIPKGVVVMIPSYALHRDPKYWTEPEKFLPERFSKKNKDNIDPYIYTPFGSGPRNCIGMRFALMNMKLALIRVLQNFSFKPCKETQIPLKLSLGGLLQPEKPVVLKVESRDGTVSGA

As for `O=C(c1cnn2c(C(F)(F)F)cc(-c3ccccc3)nc12)N1CCCCC1c1cccnc1` (stereo not given), the half-maximal effective concentration (EC50) is 0.506 µM (active) in assay [1]; > 120 µM (not active) in assay [2]; > 120 µM (not active) in assay [3]; 75.7 µM (active) in assay [4]; > 60 µM (not active) in assay [5].

As to `COc1ccc(NC(=O)c2cccs2)c([N+](=O)[O-])c1`, the AC50 on Cytochrome P450 2C9 is 7.94 µM (inconclusive).

For `COc1ccc2c(c1)CCN=C2Cc1ccc(OC)c(OC)c1`, the EC50 was > 120 µM (not active) in [2]; 66.8 µM (active) in assay [6]; > 38 µM (not active) in assay [7]; > 120 µM (not active) in assay [3]; > 120 µM (not active) in assay [4].

For the compound `C1CNCCOCCNCCN1`, the AC50 on Cytochrome P450 2C9 is 17.8 µM (inconclusive).

`COc1ccc(Oc2c(Cl)cnn(-c3ccc(Cl)c(Cl)c3)c2=O)cc1`: the EC50 in assay [2] is 15 µM (active); in [8], 10.8 µM (active); in assay [3], 8.46 µM (active); in assay [4], 13.4 µM (active); in [9], 91.6 µM (active). Besides, in [10], the AC50 is 4.57 µM (active).

For the compound `CCCn1cnc2cc(NCc3cccs3)ccc21`, the results for the EC50 (in the assay with H4; in assay [11]) were 13.4 µM (active) and 11.8 µM (active), respectively.

`C=CCN1C(=O)S/C(=C\c2ccc(N3CCOCC3)cc2C)C1=O`: the EC50 in assay [12] was 40.8 µM (active); in [13], 61.3 µM (inconclusive).

`O=C(Nc1ccc(Br)cn1)c1ccc2nccnc2c1`: the EC50 in [12] and in assay [13] was > 300 µM (not active) in each case.

In the case of `Cc1cc(C)cc(N(C(=O)c2ccccn2)C(C(=O)NC2CCCCC2)c2cccs2)c1` (stereo not given), the values for the half-maximal activity concentration (AC50) at Cytochrome P450 2C19 and at Cytochrome P450 2C9 were 17.8 µM (inconclusive) and 15.8 µM (inconclusive), respectively.

Regarding `CC(C)NC(=O)N1CCCC2(CCN(C(=O)c3cccn3C)CC2)C1`, at Cytochrome P450 3A4, the AC50 was 25.1 µM (inconclusive).

Regarding `Cc1ccc(OCCCC(=O)NCc2ccco2)cc1`, the AC50 at Cytochrome P450 3A4 was 17.8 µM (inconclusive).

On to `COc1cccc(CN2C(=O)C3(C(C#N)=C(N)OC4=C3C(=O)CCC4)c3ccccc32)c1` (stereo not given), for which the EC50 in [2] is 19.2 µM (active); in assay [6], > 160 µM (inconclusive); in assay [7], 1.24 µM (active); in assay [12], > 300 µM (not active); in [3] it was 20.1 µM (active); in assay [13], > 300 µM (not active). Besides, the EC50 in [4] was > 120 µM (not active).

Take `Nc1ccc(S(=O)(=O)NNC(=O)C(=O)NNc2ccccc2)cc1`: the EC50 in assay [1] was 0.75 µM (active); in assay [6], 1.48 µM (active); in assay [7], > 38 µM (not active); in [5], 1.96 µM (active).

As for `Cc1cc(C(F)(F)F)n2nc(-c3cnn(C)c3C(F)(F)F)cc2n1`, the results for the AC50 at Cytochrome P450 3A4 and at Cytochrome P450 2C9 were 17.8 µM (inconclusive) and 7.08 µM (inconclusive), respectively.

Consider `O=C(NNC(=O)c1cnccn1)c1cccc([N+](=O)[O-])c1`, for which the EC50 in assay [12] is 22.1 µM (active); in [13], 1.03 µM (active).

As to `CCOC(=O)c1sc(Nc2nc3c(OC)cccc3s2)nc1C`, the EC50 in assay [6] is 48.9 µM (active); in assay [7] it was 2.8 µM (active).

On to `O=C(CCC(=O)Nc1ccccc1Cl)NNS(=O)(=O)c1ccc(Cl)cc1`, for which the EC50 in [6] was > 160 µM (inactive); in assay [7] it was > 38 µM (not active).

`CC(C)(C)c1nn(-c2ccccc2)c2[nH]c(=O)c(CNCc3ccco3)cc12`: the EC50 in assay [12] and in assay [13] was > 300 µM (not active) each time.

Turning to `CC(C)=NO[C@@H](C)c1cc(-c2c(C)cc(C)cc2C)no1`, the half-maximal activity concentration (AC50) at Cytochrome P450 2C19 is 0.631 µM (inconclusive); at Cytochrome P450 3A4, 3.16 µM (inconclusive).

For `NS(=O)(=O)c1cc(C(=O)O)c(O)c2ccccc12`, on Cytochrome P450 2C9, the AC50 is 3.98 µM (inconclusive).

Regarding `N#CCCn1c(=O)c(-c2cccs2)nc2cnc(Oc3cccc(Cl)c3)nc21`, the AC50 on Cytochrome P450 3A4 was 7.94 µM (inconclusive); at Cytochrome P450 2C9 it was 6.31 µM (inconclusive).

Regarding `CC(=O)Nc1ccc(S(=O)(=O)NCc2nc(-c3cccc(C)c3)no2)cc1`, the values for the EC50 in assay [12] and in [13] were 85.6 µM (active) and > 300 µM (not active), respectively.

As for `CCCCC(=O)Nc1nc(C)c(-c2csc(Nc3cc(OC)ccc3OC)n2)s1`, the EC50 in assay [2] is 12.2 µM (active); in [3] it was 7.93 µM (active); in [4], 18.2 µM (active). In addition, the concentration at half-maximal activity (AC50) in [10] is 1.35 µM (active).

In the case of `CS(=O)(=O)c1ccc(-c2cc(Br)sc2-c2ccc(F)cc2)cc1` [DUP-697], the AC50 on Cytochrome P450 3A4 is 20 µM (inconclusive).

Consider `Nc1n[nH]c2nc3ccccc3nc12` [QUINOXALINE1], for which, at Cytochrome P450 3A4, the AC50 was 0.126 µM (inconclusive).

Take `O=c1c(-c2cccs2)nc2cnc(N3CCOCC3)nc2n1CCc1ccccc1`: at Cytochrome P450 3A4, the AC50 was 12.6 µM (inconclusive).

With `CN1C[C@H](CO)C=C2c3cccc4[nH]cc(c34)C[C@@H]21`, at Cytochrome P450 3A4, the AC50 is 12.6 µM (inconclusive).

Turning to `CC1CCCN(C(=O)c2cccc(S(=O)(=O)Nc3cc(C(F)(F)F)ccc3Cl)c2)C1` (stereo not given), the EC50 in [6] was > 150 µM (inactive); in assay [7], > 38 µM (not active).

As for `CCOc1ccc(-n2c([S-])c(C(=O)Nc3ccc(S(=O)(=O)N4CCOCC4)cc3)[n+]3cc(C(N)=O)ccc23)cc1`, the EC50 in assay [2] was 24.1 µM (active); in [3], 17.5 µM (active); in assay [4], > 120 µM (not active).

Consider `COc1cccc(Nc2ncc3nc(C)c(=O)n(CCc4ccccc4)c3n2)c1`, for which the AC50 at Cytochrome P450 2C9 is 3.16 µM (inconclusive).

Consider `CC(C)(C)c1cc(-c2ccco2)c(C#N)c(SCC#N)n1`, for which the EC50 in assay [2] is 16 µM (active); in assay [3] it was 15.2 µM (active); in assay [4] it was > 120 µM (not active).

As to `O=C(Cn1nnc2ccccc21)N/N=C\C=C\c1ccccc1`, the AC50 was 14.1 µM (inconclusive) at Cytochrome P450 2C19 and 12.6 µM (inconclusive) at Cytochrome P450 2C9.

Consider `Cc1cccn2c(O)c(C(=O)NC3CC(C)CC(C)(C)C3)c(=O)nc12` (stereo not given), for which the EC50 in assay [2] was 13.1 µM (active); in assay [3], 16.3 µM (active); in assay [4], 2.59 µM (active).

Regarding `Cn1cccc1CNC(=O)Nc1ccc(Cl)c(Cl)c1`, the EC50 in the assay on H4 is > 120 µM (not active); in assay [11] it was 1.66 µM (active).

Take `CSCC(C)N1CCC(n2nccc2NC(=O)CCCc2ccccc2)CC1` (stereo not given): the EC50 in assay [12] was 6.99 µM (active); in assay [13], 8.67 µM (active).

In the case of `Cc1cc(C)nc(NC(=O)c2cccc([N+](=O)[O-])c2C)n1`, at Cytochrome P450 2C9, the AC50 is 11.2 µM (inconclusive).

Take `Cc1ccc(CS(=O)(=O)CCC(=O)NCCCOC(C)C)cc1`: on Cytochrome P450 3A4, the AC50 is 35.5 µM (inconclusive).

Consider `Cc1cc2c3c(c1)C1(C(=O)N3C(C)(C)CC2C)C(C#N)=C(N)OC2=C1C(=O)CC(C)(C)C2` (stereo not given), for which the EC50 in assay [12] and in assay [13] was > 300 µM (not active) in each case.

As to `CCCOc1cccc(C(=O)Nc2cccnc2)c1`, the EC50 was > 150 µM (inactive) in assay [6] and > 38 µM (not active) in assay [7].

Take `Cc1c(Cl)cccc1N1C(=O)NC(=O)/C(=C\c2cc(C)n(-c3cccc(C(=O)O)c3C)c2C)C1=O`: the EC50 in assay [12] and in [13] was > 300 µM (not active) in each case.
